Test results published in PubChem BioAssay AID2060900 (Molecular Pharmacology Branch, DTP, NCI, 2025).
Where “and” joins values, the source holds several entries; their conditions need not be identical. Identical values can stand only once.

System: 521955-158-R2-J5-PDC complex spheroids, viability
Test: Anticancer human tumor 521955-158-R2-J5-PDC patient-derived pancreatic carcinoma cell line growth inhibition [RAS]
Conditions: for viability, T/C: stronger effect = lower value
Outline: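 Agents were tested in combination matrices in half-log decrements from a top concentration at or near clinical Cmax (10 microM if undetermined). Targets were multi-cell spheroids of tumour lines plus HUVEC and MSC stromal cells.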

[1] = curve of first compound, second compound 0.00316 µM
[2] = curve of first compound, second compound 0.01 µM
[3] = curve of first compound, second compound 0.0316 µM
[4] = curve of first compound, second compound 0.1 µM
[5] = curve of first compound, second compound 0.316 µM
[6] = curve of first compound, second compound 1 µM
[7] = second compound 0.00316 µM, first compound 0.0316 µM
[8] = second compound 0.00316 µM, first compound 0.1 µM
[9] = second compound 0.00316 µM, first compound 0.316 µM
[10] = second compound 0.00316 µM, first compound 1 µM
[11] = second compound 0.00316 µM, first compound 3.16 µM
[12] = second compound 0.00316 µM, first compound 10 µM
[13] = second compound 0.01 µM, first compound 0.0316 µM
[14] = second compound 0.01 µM, first compound 0.1 µM
[15] = second compound 0.01 µM, first compound 0.316 µM
[16] = second compound 0.01 µM, first compound 1 µM
[17] = second compound 0.01 µM, first compound 3.16 µM
[18] = second compound 0.01 µM, first compound 10 µM
[19] = second compound 0.0316 µM, first compound 0.0316 µM
[20] = second compound 0.0316 µM, first compound 0.1 µM
[21] = second compound 0.0316 µM, first compound 0.316 µM
[22] = second compound 0.0316 µM, first compound 1 µM
[23] = second compound 0.0316 µM, first compound 3.16 µM
[24] = second compound 0.0316 µM, first compound 10 µM
[25] = second compound 0.1 µM, first compound 0.0316 µM
[26] = second compound 0.1 µM, first compound 0.1 µM
[27] = second compound 0.1 µM, first compound 0.316 µM
[28] = second compound 0.1 µM, first compound 1 µM
[29] = second compound 0.1 µM, first compound 3.16 µM
[30] = second compound 0.1 µM, first compound 10 µM
[31] = second compound 0.316 µM, first compound 0.0316 µM
[32] = second compound 0.316 µM, first compound 0.1 µM
[33] = second compound 0.316 µM, first compound 0.316 µM
[34] = second compound 0.316 µM, first compound 1 µM
[35] = second compound 0.316 µM, first compound 3.16 µM
[36] = second compound 0.316 µM, first compound 10 µM
[37] = second compound 1 µM, first compound 0.0316 µM
[38] = second compound 1 µM, first compound 0.1 µM
[39] = second compound 1 µM, first compound 0.316 µM
[40] = second compound 1 µM, first compound 1 µM
[41] = second compound 1 µM, first compound 3.16 µM
[42] = second compound 1 µM, first compound 10 µM
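Also: compound exposure lasted seven days before the viability read.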
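For viability, T/C in this document: spheroids also contain HUVEC endothelial cells and mesenchymal stem cells as stroma.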

Structure (SMILES): C=CC(=O)Nc1cc(Nc2nccc(-c3cn(C)c4ccccc34)n2)c(OC)cc1N(C)CCN(C)C + CCn1c(-c2cccnc2C(C)OC)c2c3cc(ccc31)N1CCOC(CC(NC(=O)C(C(C)C)N(C)C(=O)C3(F)CCN(C(=O)C#CC(C)(C)N(C)C)CC3)C(=O)N3CCCC(N3)C(=O)OCC(C)(C)C2)C1
- IC50 (curve of first compound, second compound 0.000949 µM): 504 nM
- IC50 (curve of first compound, second compound 0.003 µM): 755 nM
- IC50 (curve of first compound, second compound 0.00949 µM): 493 nM
- IC50 (curve of first compound, second compound 0.03 µM): 416 nM
- IC50 (curve of first compound, second compound 0.0949 µM): 441 nM
- IC50 (curve of first compound, second compound 0.3 µM): 176 nM
- viability, T/C (second compound 0.000949 µM, first compound 0.00316 µM): 89.9%
- viability, T/C (second compound 0.000949 µM, first compound 0.01 µM): 84.1%
- viability, T/C (second compound 0.000949 µM, first compound 0.0316 µM): 84.1%
- viability, T/C (second compound 0.000949 µM, first compound 0.1 µM): 72.6%
- viability, T/C (second compound 0.000949 µM, first compound 0.316 µM): 59%
- viability, T/C (second compound 0.000949 µM, first compound 1 µM): 37.1%
- viability, T/C (second compound 0.003 µM, first compound 0.00316 µM): 110%
- viability, T/C (second compound 0.003 µM, first compound 0.01 µM): 82.6%
- viability, T/C (second compound 0.003 µM, first compound 0.0316 µM): 71.8%
- viability, T/C (second compound 0.003 µM, first compound 0.1 µM): 65.3%
- viability, T/C (second compound 0.003 µM, first compound 0.316 µM): 59.2%
- viability, T/C (second compound 0.003 µM, first compound 1 µM): 44.1%
- viability, T/C (second compound 0.00949 µM, first compound 0.00316 µM): 101%
- viability, T/C (second compound 0.00949 µM, first compound 0.01 µM): 91.5%
- viability, T/C (second compound 0.00949 µM, first compound 0.0316 µM): 88.6%
- viability, T/C (second compound 0.00949 µM, first compound 0.1 µM): 75.4%
- viability, T/C (second compound 0.00949 µM, first compound 0.316 µM): 61.4%
- viability, T/C (second compound 0.00949 µM, first compound 1 µM): 34.1%
- viability, T/C (second compound 0.03 µM, first compound 0.00316 µM): 88.6%
- viability, T/C (second compound 0.03 µM, first compound 0.01 µM): 79.2%
- viability, T/C (second compound 0.03 µM, first compound 0.0316 µM): 80%
- viability, T/C (second compound 0.03 µM, first compound 0.1 µM): 70.8%
- viability, T/C (second compound 0.03 µM, first compound 0.316 µM): 51.8%
- viability, T/C (second compound 0.03 µM, first compound 1 µM): 41%
- viability, T/C (second compound 0.0949 µM, first compound 0.00316 µM): 86.3%
- viability, T/C (second compound 0.0949 µM, first compound 0.01 µM): 95.8%
- viability, T/C (second compound 0.0949 µM, first compound 0.0316 µM): 70%
- viability, T/C (second compound 0.0949 µM, first compound 0.1 µM): 70.2%
- viability, T/C (second compound 0.0949 µM, first compound 0.316 µM): 56.6%
- viability, T/C (second compound 0.0949 µM, first compound 1 µM): 36.9%
- viability, T/C (second compound 0.3 µM, first compound 0.00316 µM): 70.2%
- viability, T/C (second compound 0.3 µM, first compound 0.01 µM): 79.2%
- viability, T/C (second compound 0.3 µM, first compound 0.0316 µM): 72%
- viability, T/C (second compound 0.3 µM, first compound 0.1 µM): 55.4%
- viability, T/C (second compound 0.3 µM, first compound 0.316 µM): 45.3%
- viability, T/C (second compound 0.3 µM, first compound 1 µM): 36.9%

Structure (SMILES): NC1c2ccccc2OC12CCN(c1cnc3c(N4CCCc5ncccc54)n[nH]c3n1)CC2 (stereo not drawn)
- viability, T/C (compound 0.0316 µM): 67.5% [middle of 4 runs]
- viability, T/C (compound 0.1 µM): 58.8% [middle of 4 runs]
- viability, T/C (compound 0.316 µM): 55.2% [middle of 4 runs]
- viability, T/C (compound 1 µM): 53.2% [middle of 4 runs]
- viability, T/C (compound 3.16 µM): 54.8% [middle of 4 runs]
- viability, T/C (compound 10 µM): 61.6% [middle of 4 runs]
- IC50 (curve of compound): > 10000 nM and 1720 nM

Structure (SMILES): CC1(O)CCCC1n1c(=O)c(C(F)F)cc2cnc(NC3CCN(S(C)(=O)=O)CC3)nc21 (stereo not drawn) + C=CC(=O)N1CCN(c2nc(OCC3CCCN3C)nc3c(F)c(-c4nc(N)cc(C)c4C(F)(F)F)c(Cl)cc23)C(C)C1
- IC50 [1]: 5890 nM
- IC50 [2]: 6180 nM
- IC50 [3]: 6070 nM
- IC50 [4]: 6240 nM
- IC50 [5]: 6020 nM
- IC50 [6]: 6060 nM
- viability, T/C [7]: 93.1%
- viability, T/C [8]: 83%
- viability, T/C [9]: 81%
- viability, T/C [10]: 80.9%
- viability, T/C [11]: 121%
- viability, T/C [12]: 14.4%
- viability, T/C [13]: 85.9%
- viability, T/C [14]: 98%
- viability, T/C [15]: 78.6%
- viability, T/C [16]: 102%
- viability, T/C [17]: 112%
- viability, T/C [18]: 17.2%
- viability, T/C [19]: 87.7%
- viability, T/C [20]: 121%
- viability, T/C [21]: 80.2%
- viability, T/C [22]: 96.4%
- viability, T/C [23]: 108%
- viability, T/C [24]: 12.7%
- viability, T/C [25]: 135%
- viability, T/C [26]: 85.2%
- viability, T/C [27]: 75.2%
- viability, T/C [28]: 109%
- viability, T/C [29]: 111%
- viability, T/C [30]: 13%
- viability, T/C [31]: 123%
- viability, T/C [32]: 79.3%
- viability, T/C [33]: 78.3%
- viability, T/C [34]: 89.8%
- viability, T/C [35]: 116%
- viability, T/C [36]: 12.7%
- viability, T/C [37]: 127%
- viability, T/C [38]: 89.1%
- viability, T/C [39]: 69.5%
- viability, T/C [40]: 84%
- viability, T/C [41]: 119%
- viability, T/C [42]: 13%

Structure (SMILES): CCC(CC)c1cc(NC2CCC(N)C2)n2nccc2n1 (stereo not drawn) + C=CC(=O)N1CCN(c2nc(OCC3CCCN3C)nc3c(F)c(-c4nc(N)cc(C)c4C(F)(F)F)c(Cl)cc23)C(C)C1
- IC50 [1]: 1950 nM
- IC50 [2]: 2100 nM
- IC50 [3]: 2110 nM
- IC50 [4]: 2090 nM
- IC50 [5]: 2140 nM
- IC50 [6]: 2010 nM
- viability, T/C [7]: 95.8%
- viability, T/C [8]: 118%
- viability, T/C [9]: 122%
- viability, T/C [10]: 107%
- viability, T/C [11]: 7.09%
- viability, T/C [12]: 10.1%
- viability, T/C [13]: 104%
- viability, T/C [14]: 127%
- viability, T/C [15]: 126%
- viability, T/C [16]: 128%
- viability, T/C [17]: 8.44%
- viability, T/C [18]: 12.1%
- viability, T/C [19]: 99.1%
- viability, T/C [20]: 127%
- viability, T/C [21]: 122%
- viability, T/C [22]: 152%
- viability, T/C [23]: 9.15%
- viability, T/C [24]: 9.78%
- viability, T/C [25]: 139%
- viability, T/C [26]: 106%
- viability, T/C [27]: 142%
- viability, T/C [28]: 120%
- viability, T/C [29]: 10.2%
- viability, T/C [30]: 9.75%
- viability, T/C [31]: 145%
- viability, T/C [32]: 105%
- viability, T/C [33]: 119%
- viability, T/C [34]: 133%
- viability, T/C [35]: 11.5%
- viability, T/C [36]: 9.87%
- viability, T/C [37]: 102%
- viability, T/C [38]: 107%
- viability, T/C [39]: 125%
- viability, T/C [40]: 110%
- viability, T/C [41]: 10.1%
- viability, T/C [42]: 13%
